From PubChem BioAssay (NCI)
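Growth conditions: 96-well plates. Treatment: test compound, 48 hours, 5 concentrations. Analysis: linear interpolation between bracketing concentrations; unreached endpoints set to highest concentration. Abbreviation: GI50, concentration required for 50% inhibition of growth. TGI marks complete inhibition of growth.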

Key:
Assay in all cases: growth of human tumour cells (NCI), 48 h
HT29 colon = system: HT29 colon
A549 NSCLC = system: A549 NSCLC
NCI/ADR-RES ovarian = system: NCI/ADR-RES ovarian
MDA-MB-435 = system: MDA-MB-435
CAKI-1 renal = system: CAKI-1 renal
PC-3 prostate = system: PC-3 prostate
NCI-H226 lung = system: NCI-H226 lung
TK-10 renal = system: TK-10 renal
SN12C renal = system: SN12C renal
MDA-MB-231 breast = system: MDA-MB-231 breast
SK-OV-3 ovarian = system: SK-OV-3 ovarian
K-562 leukemia = system: K-562 leukemia
SK-MEL-2 melanoma = system: SK-MEL-2 melanoma
OVCAR-3 ovarian = system: OVCAR-3 ovarian
HS 578T breast = system: HS 578T breast
SK-MEL-5 melanoma = system: SK-MEL-5 melanoma
786-0 renal = system: 786-0 renal
SF-539 CNS = system: SF-539 CNS
UACC-62 melanoma = system: UACC-62 melanoma
COLO 205 colon = system: COLO 205 colon
OVCAR-5 ovarian = system: OVCAR-5 ovarian
HL-60(TB) leukemia = system: HL-60(TB) leukemia
HCC-2998 colon = system: HCC-2998 colon
MALME-3M melanoma = system: MALME-3M melanoma
OVCAR-8 ovarian = system: OVCAR-8 ovarian
CCRF-CEM leukemia = system: CCRF-CEM leukemia
RXF 393 renal = system: RXF 393 renal
RPMI-8226 leukemia = system: RPMI-8226 leukemia
ACHN renal = system: ACHN renal
NCI-H460 lung = system: NCI-H460 lung
BT-549 breast = system: BT-549 breast
NCI-H23 lung = system: NCI-H23 lung
MOLT-4 leukemia = system: MOLT-4 leukemia
T-47D breast = system: T-47D breast
SNB-19 CNS = system: SNB-19 CNS
SK-MEL-28 melanoma = system: SK-MEL-28 melanoma
NCI-H522 lung = system: NCI-H522 lung
SR leukemia = system: SR leukemia
UACC-257 melanoma = system: UACC-257 melanoma
SNB-75 CNS = system: SNB-75 CNS
A498 renal = system: A498 renal
M14 melanoma = system: M14 melanoma
IGROV1 ovarian = system: IGROV1 ovarian
U251 CNS = system: U251 CNS
HCT-15 colon = system: HCT-15 colon
OVCAR-4 ovarian = system: OVCAR-4 ovarian
HOP-62 NSCLC = system: HOP-62 NSCLC
LOX IMVI melanoma = system: LOX IMVI melanoma
UO-31 renal = system: UO-31 renal
HCT-116 colon = system: HCT-116 colon
SF-295 CNS = system: SF-295 CNS
SW-620 colon = system: SW-620 colon
HOP-92 NSCLC = system: HOP-92 NSCLC
SF-268 CNS = system: SF-268 CNS
DU-145 prostate = system: DU-145 prostate
KM12 colon = system: KM12 colon
MCF7 breast = system: MCF7 breast

CCCOC(=O)c1ccc2c(c1)[N+](=O)C(C(=O)c1ccccc1)=C(C(F)(F)F)[N+]2=O
GI50 (HT29 colon): 2110 nM
TGI (HT29 colon): 4040 nM
GI50 (A549 NSCLC): 1670 nM
TGI (A549 NSCLC): 3330 nM
GI50 (NCI/ADR-RES ovarian): 1890 nM
TGI (NCI/ADR-RES ovarian): 3690 nM
GI50 (MDA-MB-435): 1710 nM
TGI (MDA-MB-435): 3260 nM
GI50 (CAKI-1 renal): 1780 nM
TGI (CAKI-1 renal): 3370 nM
GI50 (PC-3 prostate): 1550 nM
TGI (PC-3 prostate): 2940 nM
GI50 (NCI-H226 lung): 2060 nM
TGI (NCI-H226 lung): 4690 nM
GI50 (TK-10 renal): 1590 nM
TGI (TK-10 renal): 2990 nM
GI50 (SN12C renal): 1790 nM
TGI (SN12C renal): 3360 nM
GI50 (MDA-MB-231 breast): 1910 nM
TGI (MDA-MB-231 breast): 3450 nM
GI50 (SK-OV-3 ovarian): 1890 nM
TGI (SK-OV-3 ovarian): 3330 nM
GI50 (K-562 leukemia): 2100 nM
TGI (K-562 leukemia): 4120 nM
GI50 (SK-MEL-2 melanoma): 1840 nM
TGI (SK-MEL-2 melanoma): 3520 nM
GI50 (OVCAR-3 ovarian): 1740 nM
TGI (OVCAR-3 ovarian): 3170 nM
GI50 (HS 578T breast): 2010 nM
TGI (HS 578T breast): 4530 nM
GI50 (SK-MEL-5 melanoma): 1650 nM
TGI (SK-MEL-5 melanoma): 3110 nM
GI50 (786-0 renal): 1830 nM
TGI (786-0 renal): 3320 nM
GI50 (SF-539 CNS): 1790 nM
TGI (SF-539 CNS): 3210 nM
GI50 (UACC-62 melanoma): 1760 nM
TGI (UACC-62 melanoma): 3260 nM
GI50 (COLO 205 colon): 2090 nM
TGI (COLO 205 colon): 3850 nM
GI50 (OVCAR-5 ovarian): 1770 nM
TGI (OVCAR-5 ovarian): 3310 nM
GI50 (HL-60(TB) leukemia): 1960 nM
TGI (HL-60(TB) leukemia): 3880 nM
GI50 (HCC-2998 colon): 1810 nM
TGI (HCC-2998 colon): 3290 nM
GI50 (MALME-3M melanoma): 1950 nM
TGI (MALME-3M melanoma): 3640 nM
GI50 (OVCAR-8 ovarian): 1840 nM
TGI (OVCAR-8 ovarian): 3550 nM
GI50 (CCRF-CEM leukemia): 1850 nM
TGI (CCRF-CEM leukemia): 3980 nM
GI50 (RXF 393 renal): 1700 nM
TGI (RXF 393 renal): 3250 nM
GI50 (RPMI-8226 leukemia): 1940 nM
TGI (RPMI-8226 leukemia): 4110 nM
GI50 (ACHN renal): 1780 nM
TGI (ACHN renal): 3260 nM
GI50 (NCI-H460 lung): 2040 nM
TGI (NCI-H460 lung): 4280 nM
GI50 (BT-549 breast): 1790 nM
TGI (BT-549 breast): 3270 nM
GI50 (NCI-H23 lung): 1780 nM
TGI (NCI-H23 lung): 3380 nM
GI50 (MOLT-4 leukemia): 2050 nM
TGI (MOLT-4 leukemia): 4090 nM
GI50 (T-47D breast): 1800 nM
TGI (T-47D breast): 3690 nM
GI50 (SNB-19 CNS): 1750 nM
TGI (SNB-19 CNS): 3220 nM
GI50 (SK-MEL-28 melanoma): 1850 nM
TGI (SK-MEL-28 melanoma): 3510 nM
GI50 (NCI-H522 lung): 1800 nM
TGI (NCI-H522 lung): 3500 nM
GI50 (SR leukemia): 1880 nM
TGI (SR leukemia): 4850 nM
GI50 (UACC-257 melanoma): 1750 nM
TGI (UACC-257 melanoma): 3220 nM
GI50 (SNB-75 CNS): 1490 nM
TGI (SNB-75 CNS): 3000 nM
GI50 (A498 renal): 1300 nM
TGI (A498 renal): 2830 nM
GI50 (M14 melanoma): 1820 nM
TGI (M14 melanoma): 3370 nM
GI50 (IGROV1 ovarian): 1830 nM
TGI (IGROV1 ovarian): 3610 nM
GI50 (U251 CNS): 1760 nM
TGI (U251 CNS): 3200 nM
GI50 (HCT-15 colon): 1630 nM
TGI (HCT-15 colon): 3300 nM
GI50 (OVCAR-4 ovarian): 1740 nM
TGI (OVCAR-4 ovarian): 3360 nM
GI50 (HOP-62 NSCLC): 1800 nM
TGI (HOP-62 NSCLC): 3370 nM
GI50 (LOX IMVI melanoma): 1720 nM
TGI (LOX IMVI melanoma): 3350 nM
GI50 (UO-31 renal): 1670 nM
TGI (UO-31 renal): 3060 nM
GI50 (HCT-116 colon): 1700 nM
TGI (HCT-116 colon): 3360 nM
GI50 (SF-295 CNS): 1680 nM
TGI (SF-295 CNS): 3210 nM
GI50 (SW-620 colon): 1840 nM
TGI (SW-620 colon): 3680 nM
GI50 (HOP-92 NSCLC): 1130 nM
TGI (HOP-92 NSCLC): 2430 nM
GI50 (SF-268 CNS): 1780 nM
TGI (SF-268 CNS): 3480 nM
GI50 (DU-145 prostate): 1840 nM
TGI (DU-145 prostate): 3310 nM
GI50 (KM12 colon): 1810 nM
TGI (KM12 colon): 3440 nM
GI50 (MCF7 breast): 1640 nM
TGI (MCF7 breast): 3330 nM
